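Step 1: Grow cells in 96-well plates. Step 2: Expose to compound for 48 hours at 5 concentrations. Step 3: Interpolate endpoints linearly; if unreached, use highest concentration. TGI: total growth inhibition.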
Experiments:
Experiment in all cases: NCI tumour cell line growth inhibition, 48 h
[1] = system: 786-0 renal
[2] = system: A498 renal
[3] = system: BT-549 breast
[4] = system: CAKI-1 renal
[5] = system: EKVX NSCLC
[6] = system: HCT-116 colon
[7] = system: HOP-62 NSCLC
[8] = system: HOP-92 NSCLC
[9] = system: MALME-3M melanoma
[10] = system: MDA-MB-231 breast
[11] = system: NCI-H23 lung
[12] = system: NCI-H522 lung
[13] = system: SF-539 CNS
[14] = system: SK-MEL-28 melanoma
[15] = system: SN12C renal
[16] = system: SR leukemia
[17] = system: U251 CNS
[18] = system: UO-31 renal
[19] = system: CCRF-CEM leukemia

SMILES | TGI [1] | TGI [2] | TGI [3] | TGI [4] | TGI [5] | TGI [6] | TGI [7] | TGI [8] | TGI [9] | TGI [10] | TGI [11] | TGI [12] | TGI [13] | TGI [14] | TGI [15] | TGI [16] | TGI [17] | TGI [18] | TGI [19]
COC(=O)[C@@]1(Cc2ccc(O)cc2)C[C@@H]2Cc3ccccc3N2N1 | > 100 µM | 97.3 µM | > 100 µM | > 100 µM | > 100 µM | > 100 µM | > 100 µM | > 100 µM | > 100 µM | > 100 µM | > 100 µM | > 100 µM | > 100 µM | > 100 µM | > 100 µM | > 100 µM | > 100 µM | > 100 µM | –
COC(=O)c1c2c(cc3c1CC1(C3)Cc3cc4c(c(C(C)=O)c3C1)CCC4)C=CC2 (centres undefined) | > 31.6 µM | > 31.6 µM | > 31.6 µM | > 100 µM | > 31.6 µM | > 31.6 µM | > 31.6 µM | > 31.6 µM | – | > 31.6 µM | > 31.6 µM | > 31.6 µM | > 31.6 µM | > 31.6 µM | > 31.6 µM | > 31.6 µM | > 31.6 µM | > 31.6 µM | > 31.6 µM
O=C(COc1ccc(OCC(=O)NNC2=NC(c3cc(F)c(Cl)cc3Cl)CS2)c(Cl)c1)NNC1=NC(c2cc(F)c(Cl)cc2Cl)CS1 (centres undefined) | > 100 µM | 56.2 µM | 66.1 µM | – | 77.3 µM | > 100 µM | > 100 µM | > 100 µM | > 100 µM | 54.5 µM | 50.1 µM | 34.5 µM | 64.5 µM | 86.9 µM | 43.8 µM | > 100 µM | 28.5 µM | > 100 µM | > 100 µM
CCOC(=O)/C(N=Nc1ccc(-n2c(C)nc3ccc(Br)cc3c2=O)cc1)=C(/C)O | > 100 µM | > 100 µM | > 100 µM | > 100 µM | > 100 µM | > 100 µM | > 100 µM | > 100 µM | – | > 100 µM | > 100 µM | – | > 100 µM | > 100 µM | > 100 µM | > 100 µM | > 100 µM | > 100 µM | > 100 µM
CN(C)CC1CCC/C(=C\c2ccc(OC(=O)/C=C/c3ccccc3)cc2)C1=O (centres undefined) | 2.06 µM | 23.2 µM | 4.47 µM | 3.38 µM | 4.89 µM | 2.8 µM | 10.6 µM | 4.65 µM | 5.02 µM | 8.2 µM | 4.04 µM | – | 3.76 µM | 7.49 µM | 4.43 µM | > 100 µM | 3.84 µM | 3.66 µM | 0.808 µM
CN1C(=O)C(C(N)=O)C2CC1(C)Oc1ccccc12 (centres undefined) | > 100 µM | > 100 µM | > 100 µM | > 100 µM | > 100 µM | > 100 µM | > 100 µM | > 100 µM | > 100 µM | > 100 µM | > 100 µM | > 100 µM | – | > 100 µM | > 100 µM | > 100 µM | > 100 µM | – | > 100 µM
Cc1c(/C=N/NC(=S)Nc2ccccc2)c(=O)n(-c2ccccc2)n1C | > 100 µM | > 100 µM | > 100 µM | > 100 µM | > 100 µM | > 100 µM | > 100 µM | > 100 µM | – | > 100 µM | > 100 µM | – | > 100 µM | > 100 µM | – | > 100 µM | > 100 µM | > 100 µM | > 100 µM
c1cc2nnc1SCCCSc1ccc(nn1)SCCCSc1ccc(nn1)SCCCS2 | > 100 µM | > 100 µM | > 100 µM | > 100 µM | – | > 100 µM | > 100 µM | – | > 100 µM | > 100 µM | > 100 µM | > 100 µM | > 100 µM | > 100 µM | > 100 µM | > 100 µM | > 100 µM | > 100 µM | > 100 µM
O=C(NNC(=S)Nc1ccc(Br)cc1)c1cc(-c2ccccc2)nc2ccccc12 | 33.2 µM | 28.6 µM | 60.9 µM | 72.6 µM | – | 30.4 µM | 42 µM | 43.4 µM | 43.6 µM | 65.9 µM | 55.8 µM | 59 µM | 31.3 µM | 53 µM | 37.1 µM | 40.6 µM | 32.5 µM | 36.4 µM | 42.8 µM
N#CCOc1ccc(/C=C/C(=O)c2ccc(Cl)cc2)cc1 | 48.1 µM | 49.5 µM | 11.7 µM | – | > 100 µM | 27.8 µM | 57.5 µM | 81.4 µM | 58.4 µM | 85.5 µM | 76.3 µM | – | 36.4 µM | > 100 µM | > 100 µM | > 100 µM | 99.3 µM | 88.6 µM | > 100 µM
